In ChEMBL document CHEMBL1201862, “PubChem BioAssay data set” (2004):
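Method: 48-hour compound exposure of cells in 96-well plates, five concentrations, linear interpolation of endpoints. The concentration for 50% growth inhibition is given as GI50.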 Active and inactive are the calls of the source. Rule as the data show it: active = GI50 up to about 1.1 µM and inactive = higher.

Experiments:
Test in all cases: DTP human tumour cell line panel, 48 h
786-0 = test system: 786-0
A549 = test system: A549
ACHN = test system: ACHN
CCRF-CEM = test system: CCRF-CEM
COLO 205 = test system: COLO 205
DMS-114 = test system: DMS-114
DMS-273 = test system: DMS-273
EKVX = test system: EKVX
HCT-116 = test system: HCT-116
HCT-15 = test system: HCT-15
HL-60 = test system: HL-60
HOP-62 = test system: HOP-62
HT-29 = test system: HT-29
IGROV-1 = test system: IGROV-1
K562 = test system: K562
KM-20L2 = test system: KM-20L2
KM12 = test system: KM12
LOX IMVI = test system: LOX IMVI
LXFL 529 = test system: LXFL 529
M14 = test system: M14
M19-MEL = test system: M19-MEL
MOLT-4 = test system: MOLT-4
Malme-3M = test system: Malme-3M
NCI-H226 = test system: NCI-H226
NCI-H23 = test system: NCI-H23
NCI-H460 = test system: NCI-H460
NCI-H522 = test system: NCI-H522
OVCAR-3 = test system: OVCAR-3
OVCAR-4 = test system: OVCAR-4
OVCAR-5 = test system: OVCAR-5
OVCAR-8 = test system: OVCAR-8
RPMI-8226 = test system: RPMI-8226
RXF 393 = test system: RXF 393
SF-268 = test system: SF-268
SF-295 = test system: SF-295
SF-539 = test system: SF-539
SK-MEL-28 = test system: SK-MEL-28
SK-MEL-2 = test system: SK-MEL-2
SK-MEL-5 = test system: SK-MEL-5
SN12C = test system: SN12C
SNB-19 = test system: SNB-19
SNB-75 = test system: SNB-75
SNB-78 = test system: SNB-78
SR = test system: SR
SW-620 = test system: SW-620
TK-10 = test system: TK-10
U-251 = test system: U-251
UACC-62 = test system: UACC-62
UO-31 = test system: UO-31
A498 = test system: A498
Hs-578T = test system: Hs-578T
MCF7 = test system: MCF7
UACC-257 = test system: UACC-257
CAKI-1 = test system: CAKI-1
HCC 2998 = test system: HCC 2998
SK-OV-3 = test system: SK-OV-3
DLD-1 = test system: DLD-1
HOP-92 = test system: HOP-92
XF498 = test system: XF498

Measured: GI50

S=c1nc2c(c[nH]1)C1c3ccccc3C2c2ccccc21
80.2 µM: HCT-15
inactive: 786-0 > 100 µM | A549 68.9 µM | ACHN 61.2 µM | CCRF-CEM 55 µM | COLO 205 88.7 µM | DMS-114 62.2 µM | DMS-273 > 100 µM | EKVX 38.5 µM | HCT-116 > 100 µM | HL-60 28.3 µM | HOP-62 > 100 µM | HT-29 > 10 µM | IGROV-1 69.2 µM | K562 45.6 µM | KM-20L2 > 100 µM | KM12 44.1 µM | LOX IMVI > 100 µM | LXFL 529 > 100 µM | M14 79.8 µM | M19-MEL > 100 µM | MOLT-4 31.8 µM | Malme-3M > 100 µM | NCI-H226 > 100 µM | NCI-H23 > 100 µM | NCI-H460 > 100 µM | NCI-H522 46 µM | OVCAR-3 67.5 µM | OVCAR-4 39.2 µM | OVCAR-5 > 100 µM | OVCAR-8 > 100 µM | RPMI-8226 35.9 µM | RXF 393 35.2 µM | SF-268 > 100 µM | SF-295 40.1 µM | SF-539 > 100 µM | SK-MEL-28 > 100 µM | SK-MEL-2 57.7 µM | SK-MEL-5 73.8 µM | SN12C > 100 µM | SNB-19 82.4 µM | SNB-75 15.9 µM | SNB-78 > 100 µM | SR 34 µM | SW-620 > 100 µM | TK-10 > 100 µM | U-251 91.2 µM | UACC-62 59.6 µM | UO-31 39.5 µM

CC1OC(O[C@@H]2C=C3CC[C@@H]4[C@H](CC[C@]5(C)[C@@H](c6ccc(=O)oc6)CC[C@]45O)[C@@]3(C)CC2)C(O)C(O)C1O (some centres undefined)
0.0475 µM: HCT-15
active: A498 0.03 µM | ACHN 0.00179 µM | CCRF-CEM 0.03 µM | COLO 205 0.03 µM | HT-29 0.03 µM | Hs-578T 0.00119 µM | IGROV-1 0.03 µM | K562 0.03 µM | KM-20L2 0.03 µM | KM12 0.03 µM | LOX IMVI 0.03 µM | M19-MEL 0.03 µM | MCF7 0.03 µM | NCI-H23 0.0475 µM | OVCAR-5 0.03 µM | OVCAR-8 0.03 µM | RPMI-8226 0.03 µM | SK-MEL-28 0.03 µM | SNB-19 0.03 µM | SW-620 0.03 µM | U-251 0.03 µM | UACC-257 0.03 µM

COc1ccc(/C=N/C23CC4CC(CC(C4)C2)C3)cc1
> 100 µM: HCT-15
inactive: 786-0 > 100 µM | A498 > 100 µM | A549 > 100 µM | ACHN > 100 µM | CAKI-1 > 100 µM | CCRF-CEM > 100 µM | COLO 205 > 10 µM | DMS-114 > 100 µM | DMS-273 > 10 µM | EKVX > 100 µM | HCC 2998 > 100 µM | HCT-116 > 100 µM | HL-60 > 100 µM | HOP-62 > 100 µM | HT-29 > 100 µM | IGROV-1 > 100 µM | K562 > 100 µM | KM-20L2 > 100 µM | KM12 > 100 µM | LOX IMVI > 100 µM | M14 > 100 µM | M19-MEL > 10 µM | MOLT-4 > 100 µM | Malme-3M > 100 µM | NCI-H226 > 100 µM | NCI-H23 > 100 µM | NCI-H460 > 100 µM | NCI-H522 > 100 µM | OVCAR-3 > 100 µM | OVCAR-4 > 100 µM | OVCAR-5 > 100 µM | OVCAR-8 > 100 µM | RPMI-8226 > 100 µM | RXF 393 > 100 µM | SF-268 > 100 µM | SF-295 > 100 µM | SF-539 > 100 µM | SK-MEL-28 > 100 µM | SK-MEL-2 > 100 µM | SK-MEL-5 > 100 µM | SK-OV-3 > 100 µM | SN12C > 100 µM | SNB-19 > 100 µM | SNB-75 > 100 µM | SNB-78 > 100 µM | SR > 100 µM | SW-620 > 100 µM | TK-10 > 100 µM | U-251 > 100 µM | UACC-257 > 100 µM | UACC-62 > 100 µM | UO-31 > 100 µM

CCCCC#COS(=O)(=O)c1ccc(C)cc1
inactive: 786-0 > 100 µM | A498 > 100 µM | A549 44.9 µM | ACHN 71.1 µM | CAKI-1 > 100 µM | CCRF-CEM 30.5 µM | COLO 205 > 100 µM | DLD-1 57.9 µM | DMS-114 44.1 µM | EKVX 56.6 µM | HCC 2998 > 100 µM | HCT-116 82.8 µM | HL-60 > 100 µM | HOP-62 > 100 µM | HT-29 > 100 µM | IGROV-1 > 100 µM | K562 45.3 µM | KM-20L2 75.9 µM | KM12 84.9 µM | LOX IMVI > 100 µM | LXFL 529 64 µM | M14 > 100 µM | M19-MEL 69.7 µM | MOLT-4 88.1 µM | Malme-3M > 100 µM | NCI-H226 14.7 µM | NCI-H23 92.9 µM | NCI-H460 79.3 µM | NCI-H522 54.1 µM | OVCAR-3 > 100 µM | OVCAR-4 65.9 µM | OVCAR-5 > 100 µM | OVCAR-8 > 100 µM | RPMI-8226 46.2 µM | SF-268 > 100 µM | SF-295 > 100 µM | SF-539 > 100 µM | SK-MEL-2 > 100 µM | SK-MEL-5 > 100 µM | SK-OV-3 88.7 µM | SN12C > 100 µM | SNB-19 > 100 µM | SNB-78 > 100 µM | SR 53 µM | SW-620 > 100 µM | U-251 86.5 µM | UACC-257 > 100 µM | UACC-62 > 100 µM | UO-31 > 100 µM
> 100 µM: HCT-15

O=C(O)C1Cc2[nH]c3ccccc3c2C2CCCC12 (centres undefined)
> 100 µM: HCT-15
inactive: 786-0 > 100 µM | A498 > 100 µM | A549 > 100 µM | ACHN > 100 µM | CAKI-1 > 100 µM | CCRF-CEM > 100 µM | COLO 205 > 100 µM | DLD-1 > 100 µM | DMS-114 > 100 µM | DMS-273 > 100 µM | EKVX > 100 µM | HCC 2998 > 100 µM | HCT-116 > 100 µM | HOP-92 > 100 µM | IGROV-1 > 100 µM | K562 > 100 µM | KM-20L2 > 100 µM | KM12 > 100 µM | LOX IMVI > 100 µM | LXFL 529 > 100 µM | M14 > 100 µM | M19-MEL > 100 µM | MOLT-4 > 100 µM | Malme-3M > 100 µM | NCI-H226 5.15 µM | NCI-H23 > 100 µM | NCI-H460 > 100 µM | NCI-H522 > 100 µM | OVCAR-3 > 100 µM | OVCAR-4 > 100 µM | OVCAR-5 > 100 µM | OVCAR-8 > 100 µM | SF-268 > 100 µM | SF-295 > 100 µM | SF-539 > 100 µM | SK-MEL-28 > 100 µM | SK-MEL-2 > 100 µM | SK-MEL-5 > 100 µM | SK-OV-3 > 100 µM | SN12C > 100 µM | SNB-19 > 100 µM | SNB-75 46.3 µM | SNB-78 > 100 µM | SR > 100 µM | SW-620 > 100 µM | TK-10 > 100 µM | U-251 > 100 µM | UACC-257 > 100 µM | UACC-62 > 100 µM | UO-31 > 100 µM | XF498 > 100 µM

COCC1N=C(c2ccc(OC)c(OCc3ccccc3)c2OC)O[C@H]1c1ccccc1 (some centres undefined)
17.5 µM: HCT-15
inactive: 786-0 29.9 µM | A498 6.19 µM | A549 24.5 µM | ACHN 12.9 µM | CCRF-CEM 15.3 µM | COLO 205 18.1 µM | DLD-1 20.6 µM | DMS-114 12.2 µM | DMS-273 15.8 µM | EKVX 34 µM | HCC 2998 35.6 µM | HCT-116 11.9 µM | HL-60 15.2 µM | HOP-62 37.2 µM | HOP-92 13.1 µM | HT-29 19.8 µM | IGROV-1 32.4 µM | K562 12.3 µM | KM-20L2 17.9 µM | KM12 21.2 µM | LOX IMVI 13.9 µM | LXFL 529 14.8 µM | M14 14.6 µM | M19-MEL 17.4 µM | MOLT-4 5.81 µM | NCI-H226 29 µM | NCI-H23 17.7 µM | NCI-H460 11.1 µM | NCI-H522 20.8 µM | OVCAR-3 16 µM | OVCAR-4 20.5 µM | OVCAR-5 25 µM | OVCAR-8 23.1 µM | RPMI-8226 5.65 µM | RXF 393 29.3 µM | SF-268 25.8 µM | SF-295 25.6 µM | SF-539 17.4 µM | SK-MEL-28 20.7 µM | SK-MEL-2 23.4 µM | SK-MEL-5 11.9 µM | SK-OV-3 46.6 µM | SN12C 20.5 µM | SNB-19 29.9 µM | SNB-75 25.3 µM | SNB-78 29.1 µM | SW-620 34.8 µM | TK-10 35.2 µM | U-251 18.1 µM | UACC-62 15.8 µM | UO-31 4.89 µM
